The source of these data is patent publication US20210290597A1, “METHOD OF TREATING A CONDITION ASSOCIATED WITH NEURODEGENERATION USING INHIBITORS OF OAT3” (Neuropore Therapies, Inc., priority 2018, published 2021).

pIC50: −log10 of the molar value. Read-outs that look alike come from different tables or passages of the source.

Data set [1] has as its system L61 ASYN transgenic mice. Nature of the data set: Grip strength, L61 ASYN transgenic mice, 3 month study. As to conditions: 5 mg/kg and 10 mg/kg i.p. daily, after 70 days of treatment. The class given is in vivo. On the procedure:
The effects of Compound 1 on the motor performance deficits (grip strength) and a marker of neuroinflammation (Translocator Protein (18 kDa)) were assessed in both L61 ASYN transgenic and non-transgenic mice in a 3 month administration study.
Briefly, Compound 1 was injected into L61 ASYN transgenic mice and non-transgenic control mice (i.p., once daily) at doses of 5 and 10 mg/kg for 3 months (79 total mice, n=14-17 mice per treatment group). The vehicle control consisted of a solution containing 5% DMSO+20% Cremphor EL+0.9% normal saline. The baseline grip strength of mice was evaluated prior to starting treatments for the 3 month study, and then re-evaluated following 70 days of treatment with vehicle or Compound 1 (5 or 10 mg/kg, i.p. injection daily).

The target in data set [2] is T1, OAT3 (Homo sapiens, UniProt Q8TCC7).
T1 construct: expressed in transfected cells; host or cells: MDCK-II
T1 sequence (Q8TCC7 1-542): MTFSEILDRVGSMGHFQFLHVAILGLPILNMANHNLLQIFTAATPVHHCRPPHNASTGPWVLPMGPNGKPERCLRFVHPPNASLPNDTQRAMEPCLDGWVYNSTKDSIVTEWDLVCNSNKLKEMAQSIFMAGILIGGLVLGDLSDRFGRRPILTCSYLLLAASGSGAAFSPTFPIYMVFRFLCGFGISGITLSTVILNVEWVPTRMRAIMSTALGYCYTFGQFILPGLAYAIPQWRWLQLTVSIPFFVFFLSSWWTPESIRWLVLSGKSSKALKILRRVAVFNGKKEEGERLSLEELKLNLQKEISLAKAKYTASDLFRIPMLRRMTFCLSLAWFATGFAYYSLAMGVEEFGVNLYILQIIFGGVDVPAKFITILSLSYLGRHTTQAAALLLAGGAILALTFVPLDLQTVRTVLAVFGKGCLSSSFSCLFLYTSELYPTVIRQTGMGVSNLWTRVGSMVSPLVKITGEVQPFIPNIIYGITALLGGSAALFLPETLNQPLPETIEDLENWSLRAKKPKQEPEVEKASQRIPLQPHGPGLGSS
Nature of the data set: Further OAT3 uptake inhibition assay (Table 2). The class given is cell-based. The conditions noted are these: human, MDCK-II cells expressing human OAT3, probe 10 μM PAH (p-aminohippurate); compound 1 μM; PAH 10 μM; mean and SD of triplicate. On the procedure: (§1) In a further assay, the effects of several other compounds (including compounds 2, 3, and 4) were assessed against OAT3. The assay was carried out using a similar procedure as described above, using para-aminohippurate (PAH) and estrone-3-sulfate (E3S) as the substrates for measuring OAT3-mediated transport. […] MDCK-II cells were grown in 96-well cell culture plates, and the cell plates are maintained at 37° C. in 5% CO2 atmosphere prior to initiation of the transport experiment. MDCK-II cells were maintained in DMEM with low glucose and 10% FBS. Cells passages up to 40 are seeded at 60K±10K cells/well on 96-well, transwell membrane plates approximately 24 hours before transfection. Transport assays were carried out approximately 48 hours after transfection. Radio-labeled para-aminohippurate ([3H]-PAH) and estrone-3-sulfate (E3S) were used as substrates for measuring OAT3-mediated transport, where the transport of the substrate was determined by radiometric detection. Probenecid was used as a reference inhibitor. Transport study samples were run in triplicate.
(§2) For uptake assays, the net transporter-mediated uptake rate (V) of the substrate by each SLC transporter was calculated as follows:
(§3) Transporter-mediated uptake rate(pmol/min/cm^2)=((Cellular accumulation in cells expressing the transporter)−(Mean cellular accumulation in control cells))/Incubation time.
(§4) Percent inhibition was calculated by dividing the transporter-mediated uptake rate in presence of the test article or the reference inhibitor by the transporter-mediated uptake rate in presence of vehicle control:
(§5) Percent inhibition=100−(100×(transporter-mediated uptake rate)with inhibitor/(transporter-mediated uptake rate)vehicle control)
(§6) For uptake assays, statistical analyses using an unpaired t test was performed between transporter-mediated uptake rate or ATP-dependent transport rate of probe substrate with vehicle control and the inhibitor. A p value of <0.05 was considered statistically significant.
(§7) Table 2 summarizes the inhibitory activity of these compounds against OAT3 in the uptake of probe substrate PAH (p-aminohippurate) or E3S (estrone-3-sulfate). The percent inhibition values were determined by testing compounds at a single concentration of 1 μM with a PAH concentration of 10 μM. Data represent the mean and standard deviation of triplicate samples. The IC50 values were calculated by means of a concentration response curve with a compound concentration range of 0.03-10 μM and a probe substrate concentration of 10 μM PAH or 0.1 μM E3S. The percent inhibition at the various concentrations was run in triplicate and the IC50 value was determined by non-linear regression using GraphPad Prism.

Data set [3] deals with T2, human transporter OAT3 (Homo sapiens, UniProt Q8TCC7).
T2 construct: expressed in transfected cells; host or cells: MDCK-II
T2 sequence (Q8TCC7 1-542): T1 sequence (Q8TCC7 1-542)
Nature of the data set: Further OAT3 uptake inhibition assay (Table 2). As to conditions: compound 0.03-10 μM. The format is cell-based. On the procedure:
as §1, §2, §3, §4, §5, §6, §7

Data set [4] addresses T3, human transporter OATP1B1 (Homo sapiens, UniProt Q9Y6L6).
T3 construct: expressed in transfected cells; host or cells: MDCK-II
T3 sequence (Q9Y6L6 1-691): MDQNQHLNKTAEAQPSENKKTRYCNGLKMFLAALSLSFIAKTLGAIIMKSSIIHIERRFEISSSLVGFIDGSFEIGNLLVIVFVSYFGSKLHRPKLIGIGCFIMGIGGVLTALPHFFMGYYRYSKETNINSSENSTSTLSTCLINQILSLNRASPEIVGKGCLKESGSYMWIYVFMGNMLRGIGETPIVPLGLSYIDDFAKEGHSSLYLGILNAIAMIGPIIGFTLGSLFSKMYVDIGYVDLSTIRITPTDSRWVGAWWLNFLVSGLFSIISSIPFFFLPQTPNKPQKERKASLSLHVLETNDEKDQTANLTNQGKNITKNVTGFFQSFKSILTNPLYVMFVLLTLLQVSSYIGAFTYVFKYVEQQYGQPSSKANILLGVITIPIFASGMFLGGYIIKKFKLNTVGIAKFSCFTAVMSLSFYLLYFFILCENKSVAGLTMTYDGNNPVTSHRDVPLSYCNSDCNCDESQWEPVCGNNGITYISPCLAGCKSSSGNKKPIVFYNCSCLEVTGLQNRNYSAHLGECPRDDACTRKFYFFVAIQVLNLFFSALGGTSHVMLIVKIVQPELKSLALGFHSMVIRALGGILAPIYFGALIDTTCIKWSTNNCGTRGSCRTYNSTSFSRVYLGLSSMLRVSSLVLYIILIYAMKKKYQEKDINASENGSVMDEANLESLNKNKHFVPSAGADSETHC
Nature of the data set: In vitro ion transport assay 1, OATP1B1. The conditions noted are these: probe substrate 2 μM [3H]-estradiol-17β-D-glucuronide. The class given is cell-based. On the procedure:
Compound 1 was studied in the concentration range of 0.1-100 μM for its potency against transport mediated by various transporter proteins. [table]

For orientation: inhibition means the share of the control response that was lost under treatment. The low end stands for a weak effect, the high end for a strong effect. A word on the pIC50: it is −log10 of the IC50, conventionally taken in molar units. On to `O=S(=O)(c1ccc(-n2cn[nH]c2=S)cc1)c1ccc(Cl)c(C(F)(F)F)c1` [Compound 1, 4-(4-((4-chloro-3-(trifluoromethyl)phenyl)sulfonyl)phenyl)-2,4-dihydro-3H-1,2,4-triazole-3-thione], for which the “grip strength vs vehicle-treated transgenic mice” value in data set [1] is on record as “higher grip strengths”. The inhibition at 1 μM in data set [2] was 80.3%. The pIC50 was 6.05 in data set [3] (0.1 μM E3S, read-out: OAT3 inhibition substrate = E3S (IC50)); 6.60 in data set [3] (10 μM PAH, read-out: OAT3 inhibition substrate = PAH (IC50)); 4.84 in data set [4].
